Measured values reported in ChEMBL document CHEMBL3407331, “Discovery of AM-7209, a potent and selective 4-amidobenzoic acid inhibitor of the MDM2-p53 interaction” (J Med Chem, 2014).
Activity calls are given as the source filed them. No cut-off for these calls is given here.

Experiments:
[1] = molecular target: T1, CYP3A4 (Homo sapiens, UniProt P08684); assay: Time-dependent inhibition of CYP3A4 (unknown origin) assessed as remaining activity at 10 uM after 30 mins; assay type: ADME; conditions: read-out: Activity
[2] = molecular target: T1, CYP3A4; assay: Inhibition of CYP3A4 (unknown origin) at 3 uM; assay type: ADME
[3] = molecular target: T2, PXR (NR1I2) (Homo sapiens, UniProt O75469); assay: Activation of human PXR at 2 uM relative to control; assay type: ADME; conditions: read-out: Activity
T2 sequence (O75469 whole entry): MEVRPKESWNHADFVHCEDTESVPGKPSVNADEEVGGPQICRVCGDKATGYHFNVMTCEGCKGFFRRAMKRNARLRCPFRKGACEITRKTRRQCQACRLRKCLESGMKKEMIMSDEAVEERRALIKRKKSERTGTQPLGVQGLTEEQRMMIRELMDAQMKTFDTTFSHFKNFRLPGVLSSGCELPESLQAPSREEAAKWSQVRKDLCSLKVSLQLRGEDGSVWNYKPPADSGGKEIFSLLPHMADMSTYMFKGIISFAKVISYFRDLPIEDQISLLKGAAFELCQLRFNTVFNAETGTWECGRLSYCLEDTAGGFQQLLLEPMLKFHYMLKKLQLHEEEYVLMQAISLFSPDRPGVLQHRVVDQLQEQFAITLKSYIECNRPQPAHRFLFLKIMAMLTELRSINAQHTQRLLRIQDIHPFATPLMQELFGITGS

[4] = system: SJSA-1; assay: cells; conditions: Homo sapiens, SJSA-1, 16 h
[5] = Drug metabolism in human hepatocytes assessed as oxidative metabolite M2 formation at 10 uM after 2 hrs by LC/MS analysis; assay type: ADME, cell-based, Hepatocyte
[6] = Antitumor activity against human HCT116 cells xenografted in athymic nude mouse assessed as tumor growth inhibition at 100 mg/kg, po qd starting on day 10 of tumor implantation; assay type: functional; conditions: HCT-116, 240 h, read-out: TGI
[7] = Drug metabolism in human hepatocytes assessed as demethylated metabolite M3 formation at 10 uM after 2 hrs by LC/MS analysis; assay type: ADME, cell-based, Hepatocyte
[8] = system: SJSA-1; assay: Antitumor activity against human SJSA1 cells xenografted in athymic nude mouse assessed as complete tumor regression at 25 to 50 mg/kg, po qd for 4 days measured after 30 days; assay type: functional, organism-based
[9] = molecular target: T3, E3 ubiquitin-protein ligase Mdm2 (Homo sapiens, UniProt Q00987)
[10] = animal or person; conditions: Homo sapiens, HCT-116, po, 240 h
[11] = Oral bioavailability in mouse; assay type: ADME, organism-based; conditions: in vivo
[12] = Drug metabolism in dog hepatocytes assessed as demethylated metabolite M3 formation at 10 uM after 2 hrs by LC/MS analysis; assay type: ADME, cell-based, Canis lupus familiaris, Hepatocyte
[13] = Drug metabolism in rat hepatocytes assessed as oxidative metabolite M2 formation at 10 uM after 2 hrs by LC/MS analysis; assay type: ADME, cell-based, Hepatocyte
[14] = Antiproliferative activity against human HCT116 cells expressing p53 wild type after 16 hrs by BrdU proliferation assay; assay type: functional, cell-based; conditions: HCT-116, 16 h
[15] = molecular target: T3, E3 ubiquitin-protein ligase Mdm2; assay: Binding affinity to human MDM2 by isothermal titration calorimetry
[16] = Oral bioavailability in dog; assay type: ADME, organism-based, Canis lupus familiaris; conditions: in vivo
[17] = Drug metabolism in cynomolgus monkey hepatocytes assessed as demethylated metabolite M3 formation at 10 uM after 2 hrs by LC/MS analysis; assay type: ADME, cell-based, Macaca fascicularis, Hepatocyte
[18] = Drug metabolism in cynomolgus monkey hepatocytes assessed as oxidative metabolite M2 formation at 10 uM after 2 hrs by LC/MS analysis; assay type: ADME, cell-based, Macaca fascicularis, Hepatocyte
[19] = Drug metabolism in rat hepatocytes assessed as demethylated metabolite M3 formation at 10 uM after 2 hrs by LC/MS analysis; assay type: ADME, cell-based, Hepatocyte
[20] = system: Mus musculus; assay: Toxicity in human SJSA1 cells xenografted athymic nude mouse assessed as body weight loss at 10 to 50 mg/kg, po qd for 4 days; assay type: organism-based, SJSA-1; design: dose 10-50 mg/kg, route oral; conditions: in vivo, 96 h
[21] = Antiproliferative activity p53 -deficient human HCT116 cells after 16 hrs by BrdU proliferation assay; assay type: functional, cell-based; conditions: HCT-116, 16 h
[22] = Drug metabolism in dog hepatocytes assessed as oxidative metabolite M2 formation at 10 uM after 2 hrs by LC/MS analysis; assay type: ADME, cell-based, Canis lupus familiaris, Hepatocyte
[23] = Clearance in iv dosed mouse; assay type: ADME, organism-based; conditions: in vivo
[24] = Clearance in iv dosed dog; assay type: ADME, organism-based, Canis lupus familiaris; conditions: in vivo
[25] = system: Hepatocyte; assay: cells; conditions: Homo sapiens
[26] = molecular target: T3, E3 ubiquitin-protein ligase Mdm2; remark: listed apart in the source
[27] = molecular target: T3, E3 ubiquitin-protein ligase Mdm2; remark: listed apart in the source
[28] = Drug metabolism in rat hepatocytes treated with AMG 232 at 10 uM after 2 hrs by LC/MS analysis; assay type: ADME, cell-based, Hepatocyte
[29] = Drug metabolism in dog hepatocytes treated with 4-(2-((3R,5R,6S)-1-((S)-2-(tert-Butylsulfonyl)-1-cyclopropylethyl)-6-(4-chloro-3-fluorophenyl)-5-(3-chlorophenyl)-3-methyl-2-oxopiperidin-3-yl)acetamido)-2-methoxybenzoic acid at 10 uM after 2 hrs by LC/MS analysis; assay type: ADME, cell-based, Canis lupus familiaris, Hepatocyte
[30] = Drug metabolism in cynomolgus monkey hepatocytes treated with AMG 232 at 10 uM after 2 hrs by LC/MS analysis; assay type: ADME, cell-based, Macaca fascicularis, Hepatocyte
[31] = Drug metabolism in human hepatocytes treated with 4-(2-((3R,5R,6S)-1-((S)-2-(tert-Butylsulfonyl)-1-cyclopropylethyl)-6-(4-chloro-3-fluorophenyl)-5-(3-chlorophenyl)-3-methyl-2-oxopiperidin-3-yl)acetamido)-2-methoxybenzoic acid at 10 uM after 2 hrs by LC/MS analysis; assay type: ADME, cell-based, Hepatocyte
[32] = Drug metabolism in human hepatocytes treated with AMG 232 at 10 uM after 2 hrs by LC/MS analysis; assay type: ADME, cell-based, Hepatocyte
[33] = Drug metabolism in rat hepatocytes treated with 4-(2-((3R,5R,6S)-1-((S)-2-(tert-Butylsulfonyl)-1-cyclopropylethyl)-6-(4-chloro-3-fluorophenyl)-5-(3-chlorophenyl)-3-methyl-2-oxopiperidin-3-yl)acetamido)-2-methoxybenzoic acid at 10 uM after 2 hrs by LC/MS analysis; assay type: ADME, cell-based, Hepatocyte
[34] = Drug metabolism in dog hepatocytes treated with AMG 232 at 10 uM after 2 hrs by LC/MS analysis; assay type: ADME, cell-based, Canis lupus familiaris, Hepatocyte
[35] = Drug metabolism in cynomolgus monkey hepatocytes treated with 4-(2-((3R,5R,6S)-1-((S)-2-(tert-Butylsulfonyl)-1-cyclopropylethyl)-6-(4-chloro-3-fluorophenyl)-5-(3-chlorophenyl)-3-methyl-2-oxopiperidin-3-yl)acetamido)-2-methoxybenzoic acid at 10 uM after 2 hrs by LC/MS analysis; assay type: ADME, cell-based, Macaca fascicularis, Hepatocyte

T3 sequence (Q00987 whole entry): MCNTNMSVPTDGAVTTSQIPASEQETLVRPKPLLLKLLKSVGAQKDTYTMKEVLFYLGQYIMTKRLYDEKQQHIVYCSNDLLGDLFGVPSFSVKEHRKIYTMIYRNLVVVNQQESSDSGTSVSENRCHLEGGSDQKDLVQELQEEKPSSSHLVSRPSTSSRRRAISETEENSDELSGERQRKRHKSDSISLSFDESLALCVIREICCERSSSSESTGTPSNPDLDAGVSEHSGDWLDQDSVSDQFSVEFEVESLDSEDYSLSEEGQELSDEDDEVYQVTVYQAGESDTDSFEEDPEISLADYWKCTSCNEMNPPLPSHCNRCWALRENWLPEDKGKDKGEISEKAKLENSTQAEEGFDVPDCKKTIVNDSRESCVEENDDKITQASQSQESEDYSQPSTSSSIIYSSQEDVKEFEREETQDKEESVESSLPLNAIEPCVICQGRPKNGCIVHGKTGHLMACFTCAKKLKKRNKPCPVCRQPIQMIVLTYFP
T1 sequence (P08684 whole entry): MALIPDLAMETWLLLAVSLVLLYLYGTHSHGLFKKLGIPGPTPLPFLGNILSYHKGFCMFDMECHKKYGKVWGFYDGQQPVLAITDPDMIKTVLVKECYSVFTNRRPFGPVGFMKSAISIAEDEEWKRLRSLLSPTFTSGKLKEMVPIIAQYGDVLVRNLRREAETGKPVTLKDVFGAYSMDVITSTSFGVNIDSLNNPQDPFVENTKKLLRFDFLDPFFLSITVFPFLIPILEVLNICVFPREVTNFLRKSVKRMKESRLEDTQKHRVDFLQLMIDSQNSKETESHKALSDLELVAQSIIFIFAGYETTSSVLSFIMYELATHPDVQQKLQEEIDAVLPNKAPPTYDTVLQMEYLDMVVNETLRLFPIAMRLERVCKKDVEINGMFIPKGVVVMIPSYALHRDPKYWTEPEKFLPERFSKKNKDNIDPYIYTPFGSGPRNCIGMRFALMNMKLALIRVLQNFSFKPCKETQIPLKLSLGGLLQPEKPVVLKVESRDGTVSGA

CC(C)(C)S(=O)(=O)C[C@H](C1CC1)N1C(=O)[C@@](C)(CC(=O)NC23CCC(C(=O)O)(CC2)CC3)C[C@H](c2cccc(Cl)c2)[C@H]1c1ccc(Cl)cc1 gave an activity at 0.5 h, 10 µM [1] of 75%, an inhibition at 3 µM [2] of less than 10% and an activity at 2 µM [3] of 0%. It also gave an IC50 [4] of 5.9 nM.

With CC(C)(C)S(=O)(=O)C[C@H](C1CC1)N1C(=O)[C@@](C)(CC(=O)Nc2ccccc2C(=O)O)C[C@H](c2cccc(Cl)c2)[C@H]1c1ccc(Cl)cc1 the IC50 [4] was 45 nM.

With COc1cc(NC(=O)C[C@@]2(C)C[C@H](c3cccc(Cl)c3)[C@@H](c3ccc(Cl)c(F)c3)N([C@H](CS(=O)(=O)C(C)(C)C)C3CC3)C2=O)ccc1C(=O)O the Drug metabolism [5] was “metabolite_detected”, the inhibition in vivo at 100 mg/kg [6] was 100% and the Drug metabolism [7] was “metabolite_detected”. For the same compound, the Activity [8] was “Active”, the IC50 [9] was 0.6 nM and the ED50 [10] was 10 mg/kg. The bioavailability [11] was 30%, the Drug metabolism [12] was “metabolite_detected” and the Drug metabolism [13] was “metabolite_detected”. For the same compound, the IC50 [14] was 2 nM, the Kd [15] was 0.038 nM and the bioavailability [16] was 45%. For the same compound, the Drug metabolism [17] was “metabolite_detected”, the Drug metabolism [18] was “metabolite_detected” and the activity at 0.5 h, 10 µM [1] was 63%. For the same compound, the inhibition at 3 µM [2] was less than 10%, the Drug metabolism [19] was “metabolite_detected” and the Activity [20] was “<= 5%”. The activity at 2 µM [3] was 0%, the IC50 [21] was greater than 25000 nM and the Drug metabolism [22] was “metabolite_detected”. The clearance [23] was 0.433 mL/min/kg and the clearance [24] was 11.5 mL/min/kg.

In the case of CC(C)(C)S(=O)(=O)C[C@H](C1CC1)N1C(=O)[C@@](C)(CC(=O)Nc2ccc(CC(=O)O)cc2)C[C@H](c2cccc(Cl)c2)[C@H]1c1ccc(Cl)cc1, the IC50 [4] is reported as 2.7 nM.

CN(C(=O)C[C@@]1(C)C[C@H](c2cccc(Cl)c2)[C@@H](c2ccc(Cl)cc2)N([C@H](CS(=O)(=O)C(C)(C)C)C2CC2)C1=O)c1ccc(C(=O)O)cc1 gave an IC50 [4] of 198 nM.

CC(C)(C)S(=O)(=O)C[C@H](C1CC1)N1C(=O)[C@@](C)(CC(=O)O)C[C@H](c2cccc(Cl)c2F)[C@H]1c1ccc(Cl)cc1 showed a CLint [25] of 27 µL/min/10⁶ cells, an IC50 [26] of 6.4 nM and an IC50 [27] of less than 0.1 nM. For the same compound, the IC50 [4] was 0.8 nM.

With CC(C)(C)S(=O)(=O)C[C@H](C1CC1)N1C(=O)[C@@](C)(CC(=O)N[C@H]2C[C@H](C(=O)O)C2)C[C@H](c2cccc(Cl)c2)[C@H]1c1ccc(Cl)cc1 the IC50 [4] was 13.5 nM.

For COc1cc(NC(=O)C[C@@]2(C)C[C@H](c3cccc(Cl)c3)[C@@H](c3ccc(Cl)cc3)N([C@H](CS(=O)(=O)C(C)(C)C)C3CC3)C2=O)ccc1C(=O)O, the activity at 0.5 h, 10 µM [1] was 85%, the inhibition at 3 µM [2] was 14% and the activity at 2 µM [3] was 14%. For the same compound, the IC50 [4] was 1.9 nM.

For CC(C)[C@@H](CS(=O)(=O)C(C)C)N1C(=O)[C@@](C)(CC(=O)OC2O[C@H](C(=O)O)[C@@H](O)[C@H](O)[C@H]2O)C[C@H](c2cccc(Cl)c2)[C@H]1c1ccc(Cl)cc1 (some centres undefined), the Drug metabolism [28] was “metabolite_detected”, the Drug metabolism [29] was “metabolite_detected” and the Drug metabolism [30] was “metabolite_detected”. For the same compound, the Drug metabolism [31] was “metabolite_detected”, the Drug metabolism [32] was “metabolite_detected” and the Drug metabolism [33] was “metabolite_detected”. The Drug metabolism [34] was “metabolite_detected” and the Drug metabolism [35] was “metabolite_detected”.

CC(C)(C)S(=O)(=O)C[C@H](C1CC1)N1C(=O)[C@@](C)(CC(=O)O)C[C@H](c2cccc(Cl)c2)[C@H]1c1ccc(Cl)c(F)c1 showed a CLint [25] of 26 µL/min/10⁶ cells.

Compound COc1cc(C(=O)O)ccc1NC(=O)C[C@@]1(C)C[C@H](c2cccc(Cl)c2)[C@@H](c2ccc(Cl)cc2)N([C@H](CS(=O)(=O)C(C)(C)C)C2CC2)C1=O has an IC50 [4] of 6.9 nM.
